Measured values reported in ChEMBL document CHEMBL1201862, “PubChem BioAssay data set” (2004).
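How tested: cells in 96-well plates exposed to compound for 48 hours at five concentrations. GI50 is the concentration that inhibits growth by half.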 Calls of active or inactive are those of the source. No stated cut-off is given here; in the data, active = GI50 up to about 1.1 µM and inactive = higher.

Experiments:
Experiment in all cases: NCI anticancer screen, dose series, 48 h
[1] = test system: DLD-1
[2] = test system: SNB-19
[3] = test system: EKVX
[4] = test system: HL-60
[5] = test system: OVCAR-3
[6] = test system: SK-MEL-2
[7] = test system: HOP-92
[8] = test system: XF498
[9] = test system: NCI-H23
[10] = test system: SK-OV-3
[11] = test system: SN12C
[12] = test system: K562
[13] = test system: UO-31
[14] = test system: SF-268
[15] = test system: IGROV-1
[16] = test system: A549
[17] = test system: RXF 393
[18] = test system: OVCAR-8
[19] = test system: PC-3
[20] = test system: NCI/ADR-RES

Measured: GI50

Cc1cccc(NC(=O)CC#N)c1Cl
inactive: [1] > 100 µM | [2] > 100 µM | [3] > 100 µM | [4] > 100 µM | [5] > 100 µM | [6] > 100 µM | [7] > 100 µM | [8] > 100 µM | [9] > 100 µM | [10] > 100 µM | [11] > 100 µM | [12] > 100 µM | [13] 99.3 µM | [14] > 100 µM | [15] > 100 µM | [16] > 100 µM

O=C(Nc1nc2ccc([N+](=O)[O-])cc2s1)C(=O)C(C(=O)c1ccncc1)C1OC(=O)c2ccccc21 (stereo unspecified)
inactive: [1] > 100 µM | [2] > 100 µM | [3] 92.5 µM | [4] > 100 µM | [5] > 100 µM | [7] > 100 µM | [8] > 100 µM | [9] > 100 µM | [11] > 100 µM | [17] > 100 µM | [12] > 100 µM | [18] > 100 µM | [14] > 100 µM | [15] > 100 µM | [16] > 100 µM

O=C1C=CC(=O)C2C1Cc1ccccc1C2c1ccccc1 (stereo unspecified)
inactive: [1] 56.2 µM | [2] > 100 µM | [3] 31.1 µM | [4] 23 µM | [5] 29.6 µM | [6] 27.8 µM | [7] 32 µM | [9] 62.1 µM | [10] > 100 µM | [11] 39.7 µM | [12] 31.6 µM | [13] 47.1 µM | [18] 25.9 µM | [14] 53.1 µM | [15] 67 µM | [16] 30.1 µM

CC1=C(C(=O)Nc2ccccc2C)C(c2ccc([N+](=O)[O-])cc2)C(C(=O)Nc2ccccc2C)=C(C)N1
inactive: [1] 50 µM | [2] 22.8 µM | [3] > 100 µM | [4] 19.8 µM | [5] 40.1 µM | [6] 38.2 µM | [8] 40.3 µM | [9] 37.5 µM | [10] > 100 µM | [11] 76.7 µM | [17] 16.4 µM | [12] 40.1 µM | [13] 20.5 µM | [18] > 100 µM | [14] 39.1 µM | [15] 78 µM | [16] 22.5 µM

Clc1ccccc1C(n1cc(Br)cn1)n1cc(Br)cn1
inactive: [1] 18.6 µM | [2] 27.4 µM | [4] 14.7 µM | [5] > 10 µM | [6] 18.2 µM | [7] 7.48 µM | [8] 17.5 µM | [9] 23.1 µM | [10] > 10 µM | [11] 16.3 µM | [17] 16.7 µM | [12] 19.1 µM | [13] 12.6 µM | [18] 19.3 µM | [14] > 10 µM | [15] > 10 µM

COc1cc2c(cc1OC)C(C(=O)O)C(c1ccccc1)N(C)C2=O (stereo unspecified)
inactive: [1] > 100 µM | [2] > 100 µM | [3] > 100 µM | [5] > 100 µM | [6] > 100 µM | [8] > 100 µM | [9] > 100 µM | [10] > 100 µM | [11] > 100 µM | [12] > 100 µM | [13] > 100 µM | [18] > 100 µM | [14] > 100 µM | [15] > 100 µM | [16] > 100 µM

COc1cc([C@@H]2OC(=O)C3C2C(=O)O[C@H]3c2cc(OC)c(OC)c(OC)c2)cc(OC)c1OC (stereo partly specified)
inactive: [2] > 100 µM | [3] > 100 µM | [4] > 100 µM | [5] > 100 µM | [6] > 100 µM | [7] > 100 µM | [8] 6.08 µM | [9] > 100 µM | [10] > 100 µM | [11] > 100 µM | [17] > 100 µM | [12] > 100 µM | [13] > 100 µM | [18] > 100 µM | [14] > 100 µM | [15] > 100 µM | [16] > 100 µM

O=C(/C=C/c1ccc(O)c(O)c1)c1ccc(O)cc1O [BUTEIN]
inactive: [1] 13.9 µM | [2] 18.5 µM | [3] 26.9 µM | [4] 3.29 µM | [5] 15.4 µM | [6] 14.9 µM | [7] 15.7 µM | [9] 16.7 µM | [10] 15.7 µM | [11] 14.5 µM | [17] 12.2 µM | [12] 4.27 µM | [13] 14 µM | [18] 17.9 µM | [14] 14.8 µM | [15] 15.2 µM | [19] 19.6 µM | [20] 17.4 µM | [16] 25 µM
